Experimental findings from PMC10999085, “Synthesis, anticancer evaluation, molecular docking and ADME study of novel pyrido[4ʹ,3ʹ:3,4]pyrazolo[1,5-a]pyrimidines as potential tropomyosin receptor kinase A (TrKA) inhibitors” (BMC Chemistry, 2024) are described below.

Converted amounts (≈) assume the structure as drawn. A value given as a limit tells only on which side of the number the result lay.

The subject of series [1] is HepG2 cell line. The series is described as follows: MTT assay, HepG2 cell line. It is filed as cell-based, human. Conditions: for Cytotoxicity at 5 µg/l: HepG2, 5 µg/l; for Cytotoxicity at 5 µg/l / Cytotoxicity at 10 µg/l / Cytotoxicity at 20 µg/l: MTT, 24 hr treatment, in % (unit assumed); for Cytotoxicity at 10 µg/l: HepG2, 10 µg/l; for Cytotoxicity at 20 µg/l: HepG2, 20 µg/l. Here is the method: (§1) Determination of the inhibitory effects of compounds on cell growth was performed through the MTT assay. This colorimetric assay is based on the conversion of the yellow tetrazolium bromide (MTT) to a purple formazan derivative by mitochondrial succinate dehydrogenase in viable cells. The protocol was discussed in details in Additional file 1.
(§2) Compounds 1, 4a,b, 7a–c, 7k, l, 9a–c, 14a, 15b, 16a–c were selected to be investigated against three human cancer cell lines MCF7, HepG2 and HCT116 cell lines using MTT assay using doxorubicin as the standard drug. Each point is the mean ± SD (standard deviation) of three independent experiments performed in triplicate, using the prism software program (integrated Graphpad software, version 3).
(§3) Cell lines were used to measure the cell growth effects of the compounds using the MTT assay. This colorimetric assay is depend on the conversion of the yellow tetrazolium bromide (MTT) to a purple formazan derivative by mitochondrial succinate dehydrogenase in living cells. Cell lines were cultured in RPMI-1640 medium supplemented with 10% fetal bovine serum. The antibiotics added were 100 units/ml penicillin and 100 µg/ml streptomycin at 37 °C in a 5% CO2 incubator. Cell lines were seeded in a 96-well plates at a density of 1.0x10^4 cells/well and cultured at 37 °C for 48 h under 5% CO2. After incubation, the cells were treated with different concentrations of compounds and incubated for 24 hr. After 24 hr of drug treatment, 20 µl of MTT solution at 5 mg/ml was added to each well and incubated for 4 hr. 100 µl of dimethyl sulfoxide (DMSO) was added into each well to dissolve the purple formazan formed. The colorimetric assay was measured and recorded at absorbance of 570 nm using a plate reader (EXL 800, USA). Relative cell viability (%) was calculated as (A570 of treated sample/A570 of untreated sample) x 100 [36, 37].
In general terms: Tetrazolium dyes change colour on reduction, which living cells bring about.

Series [2] has as its system MCF7 cell line. The series is described as follows: MTT assay, MCF7 cell line. Particulars: 24 hr treatment, in % (unit assumed); for Cytotoxicity at 5 µg/l: MCF7, 5 µg/l; for Cytotoxicity at 10 µg/l: MCF7, 10 µg/l; for Cytotoxicity at 20 µg/l: MCF7, 20 µg/l. It counts as cell-based, human. The procedure: as §1, §2, §3
Series [3] has as its system HCT-116 cell line. The series is described as follows: MTT assay, HCT-116 cell line. It is filed as cell-based, human. Particulars: for Cytotoxicity at 5 µg/l: HCT116, 5 µg/l; for Cytotoxicity at 5 µg/l / Cytotoxicity at 10 µg/l / Cytotoxicity at 20 µg/l: MTT, 24 hr treatment, in % (unit assumed); for Cytotoxicity at 10 µg/l: HCT116, 10 µg/l; for Cytotoxicity at 20 µg/l: HCT116, 20 µg/l. Here is the method: as §1, §2, §3

Broadly, the melting point is the temperature of the solid-liquid transition. `O=C1NC(=O)c2c(nn3c(-c4ccccc4)cc(-c4ccccc4)nc23)C1=Cc1ccc2c(c1)OCO2` [Compound 7q, 7-(Benzo[d][1,3]dioxol-5-ylmethylene)-2,4-diphenylpyrido[4ʹ,3ʹ:3,4]pyrazolo[1,5-a]-pyrimidine-8,10(7H,9H)-dione] gave a melting point of 335 °C.
The molecule `O=C1NC(=O)c2c(nn3c(-c4ccccc4)cc(-c4ccccc4)nc23)C1=Cc1ccncc1` [Compound 7t, 2,4-Diphenyl-7-(pyridin-4-ylmethylene)pyrido[4ʹ,3ʹ:3,4]pyrazolo[1,5-a]pyrimidine-8,10(7H,9H)-dione] had a melting point of 340 °C.
Same read-out and setting: to `O=C1NC(=O)c2c(nn3c(O)cc(-c4ccccc4)nc23)C1=Cc1ccc(Cl)cc1` [Compound 15f, 7-(4-Chlorobenzylidene)-4-hydroxy-2-phenylpyrido[4ʹ,3ʹ:3,4]pyrazolo[1,5-a]pyrimidine-8,10(7H,9H)-dione] belongs 330 °C.
Still for that read-out and setting: with `O=C1NC(=O)c2c(nn3c(O)cc(-c4ccccc4)nc23)C1=Cc1ccccc1` [Compound 15d, 7-Benzylidene-4-hydroxy-2-phenylpyrido[4ʹ,3ʹ:3,4]pyrazolo[1,5-a]pyrimidine-8,10(7H,9H)-dione] the figure was 300 °C.
The same measure, in the same setting: to `O=C1NC(=O)c2c(nn3c(-c4ccccc4)cc(-c4ccccc4)nc23)C1=NNc1ccccc1` [Compound 11a, 2,4-Diphenyl-7-(2-phenylhydrazono)pyrido[4ʹ,3ʹ:3,4]pyrazolo[1,5-a]pyrimidine-8,10(7H,9H)-dione] belongs 315 °C; to `Cc1cc(C)n2nc3c(c2n1)C(=O)NC(=O)C3=Cc1ccc2c(c1)OCO2` [Compound 7g, 7-(Benzo[d][1,3]dioxol-5-ylmethylene)-2,4-dimethylpyrido[4ʹ,3ʹ:3,4]pyrazolo[1,5-a]-pyrimidine-8,10(7H,9H)-dione], 300 °C.
Consider `O=C1NC(=O)c2c(nn3c(-c4ccccc4)cc(-c4ccccc4)nc23)C1=Cc1ccco1` [Compound 7r, 7-(Furan-2-ylmethylene)-2,4-diphenylpyrido[4ʹ,3ʹ:3,4]pyrazolo[1,5-a]pyrimidine-8,10(7H,9H)-dione], for which the melting point turned out to be 335 °C.
Still for that read-out and setting: to `O=C1NC(=O)c2c(nn3c(-c4ccccc4)cc(-c4ccccc4)nc23)C1=Cc1ccc(Cl)cc1` [Compound 7m, 7-(4-Chlorobenzylidene)-2,4-diphenylpyrido[4ʹ,3ʹ:3,4]pyrazolo[1,5-a]pyrimidine-8,10(7H,9H)-dione] belongs 320 °C; to `COc1ccc(OC)c(C=C2C(=O)NC(=O)c3c2nn2c(-c4ccccc4)cc(-c4ccccc4)nc32)c1` [Compound 7o, 7-(2,5-Dimethoxybenzylidene)-2,4-diphenylpyrido[4ʹ,3ʹ:3,4]pyrazolo[1,5-a]pyrimidine-8,10(7H,9H)-dione], 275 °C; to `O=C1NC(=O)c2c(nn3c(O)cc(-c4ccccc4)nc23)C1=NNc1ccc(Cl)cc1` [Compound 16h, 7-(2-(4-Chlorophenyl)hydrazono)-4-hydroxy-2-phenylpyrido[4ʹ,3ʹ:3,4]pyrazolo[1,5-a]pyrimidine-8,10(7H,9H)-dione], 330 °C.
On the same count and under the same terms, with `O=C1NC(=O)c2c(nn3c(O)cc(-c4ccccc4)nc23)C1=NNc1ccccc1` [Compound 16e, 4-Hydroxy-2-phenyl-7-(2-phenylhydrazono)pyrido[4ʹ,3ʹ:3,4]pyrazolo[1,5-a]pyrimidine-8,10(7H,9H)-dione] the figure was 300 °C; with `Cc1cc(C)n2nc3c(c2n1)C(=O)NC(=O)C3=Cc1ccncc1` [Compound 7j, 2,4-Dimethyl-7-(pyridin-4-ylmethylene)pyrido[4ʹ,3ʹ:3,4]pyrazolo[1,5-a]pyrimidine-8,10(7H,9H)-dione], 270 °C.
Still for that read-out and setting: with `Cc1cc(C)n2nc3c(c2n1)C(=O)NC(=O)C3=Cc1cccs1` [Compound 7i, 2,4-Dimethyl-7-(thiophen-2-ylmethylene)pyrido[4ʹ,3ʹ:3,4]pyrazolo[1,5-a]pyrimidine-8,10(7H,9H)-dione] the figure was 290 °C.
`Nc1n[nH]c2c1C(=O)NC(=O)C2` [Compound 1, 3-amino-1,7-dihydro-4H-pyrazolo[4,3-c]pyridine-4,6(5H)-dione]: in series [1], the “Cytotoxicity at 5 µg/l” value was found to be 43.17, the “Cytotoxicity at 10 µg/l” value is recorded as 53.18 and the “Cytotoxicity at 20 µg/l” value came to 65.34. Besides, in series [2], the “Cytotoxicity at 5 µg/l” value was determined as 31.71, the “Cytotoxicity at 10 µg/l” value turned out to be 61.39 and the “Cytotoxicity at 20 µg/l” value came out at 73.65. Moreover, in series [3], the “Cytotoxicity at 5 µg/l” value turned out to be 16.23, the “Cytotoxicity at 10 µg/l” value came to 52.09 and the “Cytotoxicity at 20 µg/l” value was determined as 71.08.
For the molecule `Cc1cc(O)n2nc3c(c2n1)C(=O)NC(=O)C3=NNc1ccc(Cl)cc1` [Compound 16d, 7-(2-(4-Chlorophenyl)hydrazono)-4-hydroxy-2-methylpyrido[4ʹ,3ʹ:3,4]pyrazolo[1,5-a]pyrimidine-8,10(7H,9H)-dione], the melting point was determined as 310 °C.
Same read-out and setting: to `Cc1ccc(NN=C2C(=O)NC(=O)c3c2nn2c(-c4ccccc4)cc(-c4ccccc4)nc32)cc1` [Compound 11b, 2,4-Diphenyl-7-(2-(p-tolyl)hydrazono)pyrido[4ʹ,3ʹ:3,4]pyrazolo[1,5-a]pyrimidine-8,10(7H,9H)-dione] belongs 320 °C.
Still for that read-out and setting: with `Cc1cc(C)n2nc3c(c2n1)C(=O)NC(=O)C3=NNc1ccc(Cl)cc1` [Compound 9d, 7-(2-(4-Chlorophenyl)hydrazono)-2,4-dimethylpyrido[4ʹ,3ʹ:3,4]pyrazolo[1,5-a]pyrimidine-8,10(7H,9H)-dione] the figure was 300 °C.
Same read-out and setting: to `COc1ccc(NN=C2C(=O)NC(=O)c3c2nn2c(O)cc(-c4ccccc4)nc32)cc1` [Compound 16g, 4-Hydroxy-7-(2-(4-methoxyphenyl)hydrazono)-2-phenylpyrido[4ʹ,3ʹ:3,4]pyrazolo[1,5-a]pyrimidine-8,10(7H,9H)-dione] belongs 323 °C; to `Cc1cc(C)n2nc3c(c2n1)C(=O)NC(=O)C3=Cc1ccccc1O` [Compound 7d, 7-(2-Hydroxybenzylidene)-2,4-dimethylpyrido[4ʹ,3ʹ:3,4]pyrazolo[1,5-a]pyrimidine-8,10(7H,9H)-dione], over 360 °C; to `Cc1cc(O)n2nc3c(c2n1)C(=O)NC(=O)C3=Cc1ccccc1` [Compound 15a, 7-Benzylidene-4-hydroxy-2-methylpyrido[4ʹ,3ʹ:3,4]pyrazolo[1,5-a]pyrimidine-8,10(7H,9H)-dione], 305 °C.
On to `Cc1cc(O)n2nc3c(c2n1)C(=O)NC(=O)C3=Cc1ccc(Cl)cc1` [Compound 15c, 7-(4-Chlorobenzylidene)-4-hydroxy-2-methylpyrido[4ʹ,3ʹ:3,4]pyrazolo[1,5-a]pyrimidine-8,10(7H,9H)-dione], for which the melting point turned out to be 330 °C.
The molecule `O=C1NC(=O)c2c(nn3c(-c4ccccc4)cc(-c4ccccc4)nc23)C1=Cc1ccccc1O` [Compound 7n, 7-(2-Hydroxybenzylidene)-2,4-diphenylpyrido[4ʹ,3ʹ:3,4]pyrazolo[1,5-a]pyrimidine-8,10(7H,9H)-dione] yielded a melting point of 275 °C.
`Cc1ccc(NN=C2C(=O)NC(=O)c3c2nn2c(O)cc(-c4ccccc4)nc32)cc1` [Compound 16f, 4-Hydroxy-2-phenyl-7-(2-(p-tolyl)hydrazono)pyrido[4ʹ,3ʹ:3,4]pyrazolo[1,5-a]pyrimidine-8,10(7H,9H)-dione] returned a melting point of 320 °C.
As to `COc1cccc2c1C(=O)c1c(O)c3c(c(O)c1C2=O)C[C@@](O)(C(=O)CO)C[C@@H]3O[C@H]1C[C@H](N)[C@H](O)[C@H](C)O1` [Doxo, Doxorubicin, reference compound], the “Cytotoxicity at 5 µg/l” value amounted to 53.46 in series [1], 75.43 in series [2] and 62.14 in series [3]. Also, the results for the “Cytotoxicity at 10 µg/l” value in series [1], in series [2] and in series [3] were 68.59, 89.14 and 77.18, respectively. Further, the “Cytotoxicity at 20 µg/l” value was 91.13 in series [1], 98.19 in series [2] and 95.26 in series [3]. For the same molecule, the IC50 in series [1] (Homo sapiens, HepG2, MTT, read-out: IC50 (drug concentration that inhibited 50% of cell proliferation)) came out at 4.75 ng/mL (≈ 8.74 nM); in series [3] (Homo sapiens, HCT-116, HCT116, MTT, read-out: IC50 (drug concentration that inhibited 50% of cell proliferation)), 3.64 ng/mL (≈ 6.7 nM).
